These results are taken from ChEMBL document CHEMBL4308901, “Synthesis and biological evaluation of BMS-986120 and its deuterated derivatives as PAR4 antagonists” (Bioorg Med Chem, 2019).

Each structure is given as a SMILES string.

The species entered for the test is Mus musculus. Briefly: Antiplatelet activity in ICR mouse platelet rich plasma assessed as inhibition of PAR4-AP-induced platelet aggregation pretreated for 5 mins followed by PAR4-AP addition by aggregometric analysis. The format is functional.

The IC50 is the point on the concentration scale where inhibition reaches its midpoint. Consider `[2H]C(Oc1cc(OC)cc2oc(-c3cn4nc(OC)sc4n3)cc12)c1nc(N2CCOCC2)sc1C` (stereo not drawn), for which the IC50 stood at 14.5 nM. To `COc1cc(OCc2nc(N3CCOCC3)sc2C)c2cc(-c3cn4nc(OC)sc4n3)oc2c1` belongs 7.8 nM; to `[2H]C([2H])([2H])Oc1nn2cc(-c3cc4c(OCc5nc(N6CCOCC6)sc5C)cc(OC)cc4o3)nc2s1`, 8.74 nM. In the case of `[2H]C([2H])([2H])Oc1cc(OCc2nc(N3CCOCC3)sc2C)c2cc(-c3cn4nc(OC)sc4n3)oc2c1` it was 6.3 nM. In the case of `[2H]C([2H])([2H])Oc1cc(OCc2nc(N3CCOCC3)sc2C)c2cc(-c3cn4nc(OC([2H])([2H])[2H])sc4n3)oc2c1` it was 6.97 nM; in that of `[2H]C(Oc1cc(OC([2H])([2H])[2H])cc2oc(-c3cn4nc(OC([2H])([2H])[2H])sc4n3)cc12)c1nc(N2CCOCC2)sc1C` (stereo not drawn), 9.45 nM. Take `[2H]C(Oc1cc(OC)cc2oc(-c3cn4nc(OC([2H])([2H])[2H])sc4n3)cc12)c1nc(N2CCOCC2)sc1C` (stereo not drawn): the half-inhibitory concentration (IC50) was determined as 7.69 nM. As to `[2H]C(Oc1cc(OC([2H])([2H])[2H])cc2oc(-c3cn4nc(OC)sc4n3)cc12)c1nc(N2CCOCC2)sc1C` (stereo not drawn), the IC50 worked out at 8.15 nM.
